In PubChem BioAssay (NCI):
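Growth conditions: 96-well plates. Treatment: test compound, 48 hours, 5 concentrations. Analysis: linear interpolation between bracketing concentrations; unreached endpoints set to highest concentration. The concentration for 50% growth inhibition is given as GI50. Definition used: TGI = concentration required for complete inhibition of growth.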

Key:
Assay in all cases: growth of human tumour cells (NCI), 48 h
DMS 114 small cell lung = system: DMS 114 small cell lung
DMS 273 small cell lung = system: DMS 273 small cell lung
LXFL 529 NSCLC = system: LXFL 529 NSCLC
RXF-631 renal = system: RXF-631 renal
SNB-78 CNS = system: SNB-78 CNS
XF 498 CNS = system: XF 498 CNS
DLD-1 colon = system: DLD-1 colon
MDA-N = system: MDA-N
T-47D breast = system: T-47D breast

| Structure (SMILES) | TGI (DMS 114 small cell lung) | TGI (DMS 273 small cell lung) | TGI (LXFL 529 NSCLC) | TGI (RXF-631 renal) | TGI (SNB-78 CNS) | TGI (XF 498 CNS) | TGI (DLD-1 colon) | TGI (MDA-N) | TGI (T-47D breast) | GI50 (T-47D breast) | GI50 (MDA-N) |
| --- | --- | --- | --- | --- | --- | --- | --- | --- | --- | --- | --- |
| COc1cccc(C(=O)N2CCc3ccccc32)c1OC | > 100 µM | > 100 µM | > 100 µM | > 100 µM | > 100 µM | > 100 µM |  |  |  |  |  |
| O=C1CSC(/C(=C\c2ccc(Cl)cc2)c2nc3ccccc3[nH]2)=N1 |  | 37.6 µM | 35.2 µM |  | > 100 µM | 3.01 µM | 32.5 µM | 37.6 µM | 31.7 µM |  |  |
| CCCCCCCC(=O)OC(CBr)COC(=O)C(C)(C)C (stereo not drawn) | > 100 µM | > 100 µM | > 100 µM | > 100 µM | > 100 µM | > 100 µM | > 100 µM |  |  |  |  |
| C1CSCCCSCCSCCCSC1 |  |  |  |  |  |  |  | > 100 µM | > 100 µM |  |  |
| Nc1nnc2cc(Cl)ccc2n1 |  |  |  |  |  |  |  |  | > 100 µM | > 100 µM |  |
| CCC(=O)C(C)C1=Nc2nnc(CCCCCCCc3nnc4n3C(=O)C(C(C)C(=O)CC)=N4)n2C1=O (stereo not drawn) | > 100 µM |  | > 100 µM |  |  | > 100 µM |  |  |  |  |  |
| COC(=O)c1sc(C(=O)OC)c2c1CSC2 | > 100 µM | > 100 µM | > 100 µM | > 100 µM | > 100 µM | 81.6 µM | > 100 µM | > 100 µM |  |  |  |
| N#Cc1c(-c2ccccc2)cc(-c2ccc(Nc3nc(Nc4ccc(Cl)cc4)nc(Nc4ccc(Cl)cc4)n3)cc2)nc1N |  |  |  |  |  |  |  |  | 4.37 µM | 1.6 µM |  |
| Cc1nc2ccc(Nc3nc(NCCN4CCOCC4)nc(Nc4ccc(F)cc4)n3)cc2n1Cc1ccccc1 |  |  |  |  |  |  |  |  | 18.8 µM | 2.66 µM |  |
| COC1OC(CO)C(O)C(O)C1Br (stereo not drawn) |  | > 100 µM | > 100 µM | > 100 µM | > 100 µM | > 100 µM | > 100 µM |  |  |  |  |
| CC1=C[C@H]2c3c(c(O)c(O)c4oc5ccccc5c(=O)c34)[C@H](c3cc(O)c(O)c4oc5ccccc5c(=O)c34)[C@H]2C(C)(C)C1 |  |  |  |  |  |  |  |  | 19.3 µM | 0.764 µM |  |
| O=C1C=C(Br)C(=O)C12CCc1ccccc12 (stereo not drawn) | 45.2 µM | 37.8 µM | 13.2 µM |  | 59.4 µM | 28.8 µM | 28.8 µM | 38 µM | 50.4 µM |  |  |
| O=C(c1ccc2ncc(-c3nc(NC4CC4)ncc3F)n2c1)N1CCOCC1 |  |  |  |  |  |  |  |  | 7.49 µM | 2 µM |  |
| O=c1cc2ccccc2nn1Cc1ccccc1Cl | > 100 µM | > 100 µM |  |  | > 100 µM | > 100 µM | > 100 µM |  |  |  |  |
| O=C(Nc1ccc(F)cc1)c1c(NC(=O)C(F)(F)F)sc2c1CCCCC2 |  |  |  |  |  |  |  |  | 5.61 µM | 1.62 µM |  |
| CN(CN1C(=O)C2Cc3ccccc3CN2C1=O)c1ccccn1 (stereo not drawn) | > 100 µM | > 100 µM | > 100 µM |  |  | > 100 µM | > 100 µM |  |  |  |  |
| O=C(O)/C(=C/c1c(O)ccc2ccccc12)c1csc(-c2nc(/C(=C\c3c(O)ccc4ccccc34)C(=O)O)cs2)n1 | 25.5 µM |  | 29.8 µM |  | 34.7 µM |  | 35.5 µM |  |  |  |  |
| C1CCN(c2nsc(N3CCCCC3)n2)CC1 | > 100 µM | > 100 µM | > 100 µM | > 100 µM | > 100 µM |  | > 100 µM |  |  |  |  |

| Structure (SMILES) | TGI (DMS 114 small cell lung) | TGI (DMS 273 small cell lung) | TGI (LXFL 529 NSCLC) | TGI (RXF-631 renal) | TGI (SNB-78 CNS) | TGI (XF 498 CNS) | TGI (DLD-1 colon) | TGI (MDA-N) | TGI (T-47D breast) | GI50 (T-47D breast) | GI50 (MDA-N) |
| --- | --- | --- | --- | --- | --- | --- | --- | --- | --- | --- | --- |
| COc1cc(/C=C2\CC3C4CC=C5C[C@@H](OC(C)=O)CC[C@]5(C)C4CC[C@]3(C)C2=O)ccc1OCCCn1ccnc1 (stereo partly drawn) |  |  |  |  |  |  |  |  | > 50 µM | 19.8 µM |  |
| O=C(Nc1ccc(Cl)cc1)c1ccc(NC2=C(Cl)C(=O)N(Cc3ccccc3)C2=O)cc1 |  |  |  |  |  |  |  |  | 67.3 µM | 20.6 µM |  |
| COc1ccc(-c2cc(/C=C3\C(=O)Nc4ccc(Cl)cc43)[nH]n2)cc1 |  |  |  |  |  |  |  |  | 14.6 µM | 3.62 µM |  |
| C[C@]1(CO)[C@H]2CC[C@@]34C=C[C@@](CO)(CC[C@H]3[C@]2(C)CC[C@H]1O)C4 |  |  |  |  |  |  |  | > 100 µM | 84.3 µM |  |  |
| CN1c2ccccc2N(C)C2C1N(C)c1ccccc1N2C (stereo not drawn) | 26 µM | > 100 µM | > 100 µM | > 100 µM | > 100 µM | 21.7 µM | 62.6 µM |  |  |  |  |
| CC[C@@]1(O)C(=O)NCc2c1cc1n(c2=O)Cc2cc3c(N)cccc3nc2-1 |  |  |  |  |  |  |  | 28.1 µM | > 19.9 µM | 0.623 µM | 3.4 µM |
| O=C(NCCCNc1cc(-c2cn(-c3ccccc3)nc2-c2cccc(O)c2)ccn1)c1ccccc1 |  |  |  |  |  |  |  |  | 6.89 µM | 1.57 µM |  |
| COc1cc2noc(-c3ccccc3)c2cc1OC | > 100 µM | > 100 µM | > 100 µM | > 100 µM | > 100 µM |  | > 100 µM |  |  |  |  |
| CC(=O)OCCOCNC(=S)N/N=C(\C)c1cnc2ccccc2n1 | 47.4 µM | > 100 µM | > 100 µM |  | > 100 µM | > 100 µM | > 100 µM |  |  |  |  |
| OCC1OC(n2ccc3c(NO)ncnc32)C(O)C1O (stereo not drawn) |  |  |  |  |  |  |  |  | 1.96 µM | 0.169 µM |  |
| N#Cc1cnc2cc(OC[C@@H](O)CO)c(NC(=O)CC3CSSC3)cc2c1Nc1ccc(OCc2cccc(F)c2)c(Cl)c1 |  |  |  |  |  |  |  |  | 1.59 µM | 0.646 µM |  |
| Cc1nc2c(n1C(C)(C)C)C(=O)c1ccccc1C2=O |  | > 100 µM | > 100 µM |  | > 100 µM | > 100 µM | > 100 µM |  |  |  |  |
| CC(C)c1ccc(/C(C(=O)O)=C(\O)C(=O)O)cc1 |  |  |  |  |  |  |  | > 100 µM | > 100 µM |  |  |
| C(CCC[Te][Te]CCCCCCOC1CCCCO1)CCOC1CCCCO1 (stereo not drawn) | 25.5 µM |  | 21.1 µM |  | 38.1 µM | 21.9 µM | 45.8 µM |  |  |  |  |
| O=C(Nc1nc2ccccc2n1Cc1ccccc1)NC12CC3CC(CC(C3)C1)C2 | > 100 µM | 55.1 µM | > 100 µM |  | 49.1 µM | 73.8 µM | > 100 µM |  |  |  |  |
| C=C1C(=O)O[C@H]2[C@H]1CC/C(COC(=O)NCc1ccc(Cn3c(=O)sn(CCCCl)c3=O)cc1)=C\CC[C@@]1(C)O[C@@H]21 |  |  |  |  |  |  |  |  | 5.58 µM | 1.97 µM |  |
| COc1cc(/C=C\[N+](=O)[O-])ccc1OCc1ccccc1 |  |  |  |  |  |  |  |  | 7.44 µM | 2.25 µM |  |
